Data from a compilation of properties of binary mixtures (doi:10.1016/j.jct.2020.106093).

Assay: xn = mol fraction of the nth substance listed
Settings: 100.9 kPa

CC(=O)[O-].CC[NH2+]CC + O
Settings | electrical conductivity [S/m] | speed of sound [m/s] | viscosity [mPa·s]
283.15 K, x1 = 0.015 | – | – | 2.07
283.15 K, x1 = 0.055 | – | – | 5.43
283.15 K, x1 = 0.119 | – | – | 15.42
283.15 K, x1 = 0.549 | – | – | 143.2
283.15 K, x1 = 0.714 | – | – | 161.6
285.65 K, x1 = 0.015 | – | – | 1.92
285.65 K, x1 = 0.055 | – | – | 4.91
285.65 K, x1 = 0.119 | – | – | 13.69
285.65 K, x1 = 0.168 | – | – | 24.1
285.65 K, x1 = 0.24 | – | – | 47.8
285.65 K, x1 = 0.351 | – | – | 79.3
285.65 K, x1 = 0.549 | – | – | 122.5
285.65 K, x1 = 0.714 | – | – | 138.5
288.15 K, x1 = 0.015 | – | – | 1.78
288.15 K, x1 = 0.055 | – | – | 4.46
288.15 K, x1 = 0.119 | – | – | 12.18
288.15 K, x1 = 0.168 | – | – | 21.1
288.15 K, x1 = 0.24 | – | – | 41.6
288.15 K, x1 = 0.351 | – | – | 68.3
288.15 K, x1 = 0.714 | – | – | 119
290.65 K, x1 = 0.015 | – | – | 1.65
290.65 K, x1 = 0.055 | – | – | 4.05
290.65 K, x1 = 0.119 | – | – | 10.87
290.65 K, x1 = 0.168 | – | – | 18.7
290.65 K, x1 = 0.24 | – | – | 36.3
290.65 K, x1 = 0.351 | – | – | 59
290.65 K, x1 = 0.549 | – | – | 90.6
290.65 K, x1 = 0.714 | – | – | 102.7
293.15 K, x1 = 0.015 | – | 1580 | 1.538
293.15 K, x1 = 0.055 | – | 1761 | 3.73
293.15 K, x1 = 0.119 | – | 1844 | 9.74
293.15 K, x1 = 0.168 | – | 1826 | 16.49
293.15 K, x1 = 0.24 | – | 1768 | 31.8
293.15 K, x1 = 0.35 | – | 1704 | –
293.15 K, x1 = 0.351 | – | – | 51.2
293.15 K, x1 = 0.549 | – | 1597 | 78.4
293.15 K, x1 = 0.708 | – | 1554 | –
293.15 K, x1 = 0.714 | – | – | 89.2
293.15 K, x1 = 0.835 | – | 1523 | –
295.65 K, x1 = 0.015 | – | – | 1.437
295.65 K, x1 = 0.055 | – | – | 3.4
295.65 K, x1 = 0.119 | – | – | 8.75
295.65 K, x1 = 0.24 | – | – | 28
295.65 K, x1 = 0.351 | – | – | 44.7
295.65 K, x1 = 0.549 | – | – | 68.4
295.65 K, x1 = 0.714 | – | – | 77.8
298.15 K, x1 = 0.007 | 1.55 | – | –
298.15 K, x1 = 0.015 | 2.35 | 1588 | 1.346
298.15 K, x1 = 0.054 | 3.1 | – | –
298.15 K, x1 = 0.055 | – | 1756 | 3.12
298.15 K, x1 = 0.119 | – | 1832 | 7.91
298.15 K, x1 = 0.12 | 2.48 | – | –
298.15 K, x1 = 0.168 | 1.73 | 1813 | 13.13
298.15 K, x1 = 0.24 | 0.98 | 1754 | 24.8
298.15 K, x1 = 0.351 | – | – | 39.3
298.15 K, x1 = 0.353 | 0.708 | – | –
298.15 K, x1 = 0.549 | – | 1583 | 59.9
298.15 K, x1 = 0.55 | 0.365 | – | –
298.15 K, x1 = 0.714 | 0.26 | – | 68.2
298.15 K, x1 = 0.835 | – | 1507 | –
298.15 K, x1 = 0.838 | 0.231 | – | –
298.15 K, x1 = 0.945 | 0.23 | – | –
300.65 K, x1 = 0.015 | – | – | 1.263
300.65 K, x1 = 0.055 | – | – | 2.88
300.65 K, x1 = 0.119 | – | – | 7.17
300.65 K, x1 = 0.24 | – | – | 21.9
300.65 K, x1 = 0.351 | – | – | 34.6
300.65 K, x1 = 0.549 | – | – | 52.4
300.65 K, x1 = 0.714 | – | – | 60
303.15 K, x1 = 0.007 | 1.69 | – | –
303.15 K, x1 = 0.015 | 3.24 | 1595 | 1.189
303.15 K, x1 = 0.054 | 4.76 | – | –
303.15 K, x1 = 0.055 | – | 1751 | 2.67
303.15 K, x1 = 0.119 | – | 1819 | 6.51
303.15 K, x1 = 0.12 | 3.2 | – | –
303.15 K, x1 = 0.24 | 1.5 | 1741 | 19.6
303.15 K, x1 = 0.35 | – | 1677 | –
303.15 K, x1 = 0.353 | 0.823 | – | –
303.15 K, x1 = 0.549 | – | 1569 | 46.3
303.15 K, x1 = 0.55 | 0.473 | – | –
303.15 K, x1 = 0.708 | – | 1524 | –
303.15 K, x1 = 0.714 | 0.365 | – | 53
303.15 K, x1 = 0.838 | 0.297 | – | –
303.15 K, x1 = 0.945 | 0.29 | – | –
305.65 K, x1 = 0.015 | – | – | 1.121
305.65 K, x1 = 0.055 | – | – | 2.48
305.65 K, x1 = 0.119 | – | – | 5.94
305.65 K, x1 = 0.168 | – | – | 9.61
305.65 K, x1 = 0.351 | – | – | 27.2
305.65 K, x1 = 0.549 | – | – | 41.1
305.65 K, x1 = 0.714 | – | – | 47
308.15 K, x1 = 0.015 | – | 1601 | 1.059
308.15 K, x1 = 0.055 | – | 1745 | 2.31
308.15 K, x1 = 0.119 | – | 1807 | 5.44
308.15 K, x1 = 0.168 | – | 1786 | 8.71
308.15 K, x1 = 0.24 | – | 1727 | 15.67
308.15 K, x1 = 0.35 | – | 1664 | –
308.15 K, x1 = 0.351 | – | – | 24.2
308.15 K, x1 = 0.549 | – | 1555 | 36.6
308.15 K, x1 = 0.708 | – | 1509 | –
308.15 K, x1 = 0.714 | – | – | 41.9
310.65 K, x1 = 0.015 | – | – | 1.003
310.65 K, x1 = 0.055 | – | – | 2.15
310.65 K, x1 = 0.119 | – | – | 5
310.65 K, x1 = 0.168 | – | – | 7.94
310.65 K, x1 = 0.351 | – | – | 21.7
310.65 K, x1 = 0.714 | – | – | 37.4
310.65 K, x1 = 0.84 | – | – | 38
313.15 K, x1 = 0.015 | – | 1605 | 0.952
313.15 K, x1 = 0.055 | – | 1739 | 2.01
313.15 K, x1 = 0.119 | – | 1794 | 4.6
313.15 K, x1 = 0.168 | – | 1772 | 7.26
313.15 K, x1 = 0.24 | – | 1713 | 12.76
313.15 K, x1 = 0.35 | – | 1650 | –
